What was measured:
ERK1 = molecular target: T1, ERK1 (Homo sapiens, UniProt P27361); assay: ERK1 enzyme activity test (ADP-Glo Kinase Assay); assay type: biochemical; details: chemiluminescence
T1 construct: purchased R&D 1879-KS-010
Description: (§1) The purpose of this experiment is to detect the inhibitory ability of the compounds on the ERK1 enzyme activity and evaluate the activity of the compounds in vitro according to IC50. The ADP-Glo™ Kinase Assay Kit was used in this experiment. Under the action of enzyme, the substrate was phosphorylated and ADP was produced at the same time. The ADP-Glo Reagent was added to remove unreacted ATP in the reaction system. The kinase detection reagent was used to detect the ADP produced by the reaction. In the presence of the compound, the inhibition rate of the compound was calculated by measuring the signal value.
Enzyme and substrate preparation: ERK1 (1879-KS-010, R&D) and substrate (AS-61777, anaspec) were prepared to be 0.75 ng/μl and 100 μM respectively in the buffer. The enzyme solution and substrate solution were then prepared into a mixed solution at a volume ratio of 2:1 for later use. ATP was diluted to 300 μM with the buffer. The compounds were dissolved in DMSO (dimethyl sulfoxide, Shanghai Titan Scientific Co., Ltd.) to prepare a stock solution with an initial concentration of 20 mM, and then Bravo was used to prepare solutions of the compounds. Finally, a 3 μL of a mixed solution of enzyme and substrate, and 1 μL of different concentrations of the compound (the initial concentration is 50 μM, 4-fold dilution) were added to each well of the 384-well plate, and the plate was incubated at 30° C. for 10 minutes, and finally 1 μL of 300 μM ATP solution was added to each well, and the plate was incubated at 30° C. for 2 hours. Then 5 μL of ADP-Glo was added, and the plate was incubated at 30° C. for 40 minutes. Then 10 μL of Kinase detection buffer was added, and the plate was incubated at 30° C. for 40 minutes. The 384-well plate was taken out and placed in a microplate reader (BMG labtech, PHERAstar FS), and the chemiluminescence was measured by the microplate reader.
(§2) The data were processed and analyzed with Microsoft Excel, Graphpad Prism 5.

ERK2 = molecular target: T2, ERK2 (Homo sapiens, UniProt P28482); assay: ERK2 enzyme activity test (ADP-Glo Kinase Assay); assay type: biochemical; details: chemiluminescence
T2 construct: purchased R&D 1230-KS-010
T2 sequence (P28482 whole entry): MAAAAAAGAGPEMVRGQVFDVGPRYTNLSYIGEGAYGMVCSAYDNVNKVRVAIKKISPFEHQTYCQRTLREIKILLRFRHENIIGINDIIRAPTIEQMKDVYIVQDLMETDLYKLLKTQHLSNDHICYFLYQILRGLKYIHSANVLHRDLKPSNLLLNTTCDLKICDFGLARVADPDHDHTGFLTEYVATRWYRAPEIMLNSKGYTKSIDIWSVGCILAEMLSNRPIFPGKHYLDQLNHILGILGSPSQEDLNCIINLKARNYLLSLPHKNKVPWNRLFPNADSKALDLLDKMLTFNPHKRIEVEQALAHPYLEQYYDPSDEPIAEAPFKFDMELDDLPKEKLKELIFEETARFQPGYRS
Description: as §1, with “ERK2” for “ERK1”
Enzyme and substrate preparation: ERK2 (1230-KS-010, R&D) and substrate (Custom peptides, Gill Biochemical) were prepared to be 0.75 ng/μl and 1500 μM in the buffer (40 mM Tris, 20 mM MgCl2, 0.1 mg/mL BSA, 50 μM DTT). The enzyme solution and substrate solution were then prepared into a mixed solution at a volume ratio of 2:1 for later use. ATP was diluted to 500 μM with the buffer. The compounds were dissolved in DMSO (dimethyl sulfoxide, Shanghai Titan Scientific Co., Ltd.) to prepare a stock solution with an initial concentration of 20 mM, and then Bravo was used to prepare solutions of the compounds. Finally, a 3 μL of a mixed solution of enzyme and substrate, and 1 μL of different concentrations of the compound (the initial concentration is 50 μM, 4-fold dilution) were added to each well of the 384-well plate, and the plate was incubated at 30° C. for 10 minutes, and finally 1 μL of 500 μM ATP solution was added to each well, and the plate was incubated at 30° C. for 2 hours. Then 5 μL of ADP-Glo was added, and the plate was incubated at 30° C. for 40 minutes. Then 10 μL of Kinase detection buffer was added, and the plate was incubated at 30° C. for 40 minutes. The 384-well plate was taken out and placed in a microplate reader (BMG labtech, PHERAstar FS), and the chemiluminescence was measured by the microplate reader.
as §2

Colo205 cells = assay: In vitro proliferation inhibition test on Colo205 tumor cells (CellTiter-Glo); assay type: cell-based; details: Homo sapiens, COLO 205, 72 h; Colo205 cell proliferation, 3 days of culture, CTG
Description: The purpose of this experiment is to test the inhibitory activity of the compounds on the proliferation of Colo205 cells (CCL-222, ATCC) in vitro. The cells were treated with different concentrations of compounds in vitro. After 3 days of culture, the cell proliferation was detected using CTG (CellTiter-Glo® Luminescent Cell Viability Assay, Promega, catalog number: G7573) reagent. The in vitro activity of the compounds was evaluated according to the IC50 value.
In the following, taking the in vitro proliferation inhibition test method of Colo205 cells as an example, the method in the present disclosure for testing the in vitro proliferation inhibitory activity of the compounds of the present disclosure is described. This method is also applicable to, but not limited to, the in vitro proliferation inhibitory activity test on other tumor cells.
Colo205 cells were digested, centrifuged and then resuspended. The single cell suspension was mixed well, and the density of viable cells was adjusted to 5.0×10^4 cells/ml with cell culture medium (RPMI1640+2% FBS), and 95 μl/well was added to a 96-well cell culture plate. Only 100 μl medium was added to the peripheral wells of the 96-well plate. The culture plate was incubated in an incubator for 24 hours (37° C., 5% CO2).
The compound was dissolved in DMSO (dimethyl sulfoxide, Shanghai Titan Scientific Co., Ltd.) and prepared into a stock solution with an initial concentration of 20 mM. The initial concentration of the small molecule compound is 2 mM, and then 4-fold diluted into to 9 points, and the tenth point is DMSO. Another 96-well plate was taken, 90 μl of cell culture medium (RPMI1640+2% FBS) was added to each well, then 10 μl of different concentrations of the test sample was added to each well, the mixture was mixed well, and then 5 μl of different concentrations of the test sample was added to the cell culture plate, and each sample has two duplicate holes. The culture plate was incubated in the incubator for 3 days (37° C., 5% CO2). The 96-well cell culture plate was taken out, 50 μl CTG solution was added to each well, and the plate was incubated for 10 minutes at room temperature. In a microplate reader (BMG labtech, PHERAstar FS), chemiluminescence was measured with the microplate reader.
as §2

[1] = Pharmacokinetics assay in mice; assay type: in vivo; details: mouse, po, C57 mice (female), intragastric, 2 mg/kg, plasma
Description: Mice were used as the test animal. The drug concentration in plasma at different time points was determined by LC/MS/MS method after administration of compound 3-P2, compound 4-P2, compound 9-P2, compound 10-P2, compound 12 and compound 15. The pharmacokinetic behavior of the compounds of the present disclosure in mice was studied, and the pharmacokinetic characteristics were evaluated.
54 of C57 mice (female) were equally divided into 6 groups, which were purchased from Shanghai Jiesijie Laboratory Animal Co., Ltd., with the animal production license number: SOCK (Shanghai) 2013-0006.
A certain amount of compound was weighted, followed by the addition of 5% volume of DMSO and 5% Tween 80 to dissolve it, then followed by the addition of 90% normal saline to prepare a colorless and clear solution of 0.1 mg/mL.
After an overnight fast, C57 mice were intragastrically administered the test compound at an administration dose of 2 mg/kg and an administration volume of 0.2 ml/10 g.
The mice were intragastrically administered the test compounds. 0.1mL of blood was taken before the administration and at 0.25, 0.5, 1.0, 2.0, 4.0, 6.0, 8.0, 11.0, 24.0 hours after the administration. The blood was placed in a heparinized test tube, and centrifuged at 3500 rpm for 10 minutes. The plasma was separated and stored at −20° C.
The content of the test compound in the plasma of mice after […] administration of the test compound at different concentrations was determined: 25 μl of mouse plasma at each time point after the administration was taken, followed by the addition of 50 μl of the internal standard camptothecin solution (100 ng/mL) and 200 μl of acetonitrile. The resulting solution was vortex-mixed for 5 minutes, and centrifuged for 10 minutes (4000 rpm). 4μl of the supernatant was taken from the plasma samples for LC/MS/MS analysis.

T1 sequence (P27361 whole entry): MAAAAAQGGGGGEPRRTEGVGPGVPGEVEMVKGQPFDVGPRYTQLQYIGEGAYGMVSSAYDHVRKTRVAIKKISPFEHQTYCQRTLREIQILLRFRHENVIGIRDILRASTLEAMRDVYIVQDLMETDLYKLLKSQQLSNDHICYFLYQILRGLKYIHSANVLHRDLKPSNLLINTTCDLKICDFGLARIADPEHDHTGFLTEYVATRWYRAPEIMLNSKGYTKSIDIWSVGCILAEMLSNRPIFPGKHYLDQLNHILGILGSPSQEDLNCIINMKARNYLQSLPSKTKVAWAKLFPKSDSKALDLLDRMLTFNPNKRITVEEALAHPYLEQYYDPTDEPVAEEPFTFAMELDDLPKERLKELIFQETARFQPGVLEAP

COc1cc(F)cc([C@@H](CO)NC(=O)[C@@H](C)N2CCc3sc(-c4ccnc(Nc5ccnn5C)n4)cc3C2=O)c1 [Example 15, (R)-N-((S)-1-(3-Fluoro-5-methoxyphenyl)-2-hydroxyethyl)-2-(2-(2-((1-methyl-1H-pyrazol-5-yl)amino)pyrimidin-4-yl)-4-oxo-6,7-dihydrothieno[3,2-c]pyridin-5(4H)-yl)propionamide]
IC50 (ERK1): 4 nM | IC50 (ERK2): 3 nM | IC50 (Colo205 cells): 49 nM | Vd/F ([1]; read-out: Apparent distribution volume Vz/F): 1.76 L/kg | AUC ([1]; read-out: Area under curve AUC): 1830 ng·h/mL | CL/F ([1]; read-out: Clearance CLz/F): 18.2 mL/min/kg | half-life ([1]; read-out: Half Life T1/2 (converted)): 1.11 h | Cmax ([1]; read-out: Plasma Concentration Cmax): 1070 ng/mL | MRT ([1]; read-out: Residence Time MRT): 1.85 h

Source: US20220213119A1, “THIENOHETEROCYCLIC DERIVATIVE, PREPARATION METHOD THEREFOR AND MEDICAL USE THEREOF” (Jiangsu Hengrui Medicine Ca, Lid., priority 2019, published 2022)
